# Patent US11873298B2, “Compounds and uses thereof” (JANSSEN PHARMACEUTICA NV, priority 2017, dated 2024)
# “And” between values parts separate entries of the source, which are not always exact repeats. Equal entries are not always repeated.
# Key:
# Format in all cases: cell-based
# [1] = target: T1, Ole1 (Saccharomyces cerevisiae, UniProt P21147); test: Growth inhibition of yeast strain expressing Ole1 as sole desaturase; details: yeast strain expressing Ole1 as sole desaturase
# T1 construct: expressed in transfected cells; host or cells: S. cerevisiae ole1Δ strain (W303 pdr1Δ pdr3Δ background), plasmid pRS316 with TDH3 promoter and CYC1 terminator
# T1 sequence (P21147 1-510): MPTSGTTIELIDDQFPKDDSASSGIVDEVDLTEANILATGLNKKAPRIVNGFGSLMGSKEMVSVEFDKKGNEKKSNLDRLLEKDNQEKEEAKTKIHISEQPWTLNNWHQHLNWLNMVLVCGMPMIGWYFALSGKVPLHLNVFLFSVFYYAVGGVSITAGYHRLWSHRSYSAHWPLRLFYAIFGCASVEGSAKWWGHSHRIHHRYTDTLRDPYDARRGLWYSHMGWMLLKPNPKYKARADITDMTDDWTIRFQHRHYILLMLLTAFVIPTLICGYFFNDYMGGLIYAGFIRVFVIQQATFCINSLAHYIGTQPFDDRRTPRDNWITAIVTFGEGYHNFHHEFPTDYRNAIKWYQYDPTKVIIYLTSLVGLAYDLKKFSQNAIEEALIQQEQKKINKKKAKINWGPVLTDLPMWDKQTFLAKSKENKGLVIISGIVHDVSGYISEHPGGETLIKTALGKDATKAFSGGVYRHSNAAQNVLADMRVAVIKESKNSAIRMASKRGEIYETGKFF
# Summary of the method: (§1)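 ole1Δ yeast (W303 pdr1Δ pdr3Δ background) carrying plasmid-borne Ole1, SCD1 or SCD5, grown in uracil-free media; cultures pre-grown in raffinose, seeded at 2× density 0.02 in galactose media with compound. Growth read as OD600 after 24 h at 30° C. for Ole1, 40 h for SCD1/SCD5.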
# [2] = target: T2, SCD1 (Homo sapiens, UniProt O00767); test: Growth inhibition of humanized yeast strain expressing SCD1 as sole desaturase; details: humanized yeast strain expressing SCD1
# T2 construct: host or cells: S. cerevisiae ole1Δ strain (W303 pdr1Δ pdr3Δ background), plasmid pRS316 with TDH3 promoter and CYC1 terminator
# T2 sequence (O00767 1-359): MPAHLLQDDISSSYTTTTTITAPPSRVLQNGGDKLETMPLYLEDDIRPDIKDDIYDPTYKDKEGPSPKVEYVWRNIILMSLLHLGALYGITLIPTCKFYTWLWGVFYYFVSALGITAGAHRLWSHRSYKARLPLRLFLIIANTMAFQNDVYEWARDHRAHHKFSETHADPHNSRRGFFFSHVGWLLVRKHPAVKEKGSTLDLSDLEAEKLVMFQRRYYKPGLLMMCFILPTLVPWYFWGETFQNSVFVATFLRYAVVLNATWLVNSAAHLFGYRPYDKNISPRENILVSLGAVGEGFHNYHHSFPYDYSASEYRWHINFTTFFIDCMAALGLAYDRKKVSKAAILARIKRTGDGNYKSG
# Summary of the method: as §1
# [3] = target: T3, SCD5 (Homo sapiens, UniProt Q86SK9); test: Growth inhibition of humanized yeast strain expressing SCD5 as sole desaturase; details: humanized yeast strain expressing SCD5
# T3 construct: host or cells: S. cerevisiae ole1Δ strain (W303 pdr1Δ pdr3Δ background), plasmid pRS316 with TDH3 promoter and CYC1 terminator
# T3 sequence (Q86SK9 1-330): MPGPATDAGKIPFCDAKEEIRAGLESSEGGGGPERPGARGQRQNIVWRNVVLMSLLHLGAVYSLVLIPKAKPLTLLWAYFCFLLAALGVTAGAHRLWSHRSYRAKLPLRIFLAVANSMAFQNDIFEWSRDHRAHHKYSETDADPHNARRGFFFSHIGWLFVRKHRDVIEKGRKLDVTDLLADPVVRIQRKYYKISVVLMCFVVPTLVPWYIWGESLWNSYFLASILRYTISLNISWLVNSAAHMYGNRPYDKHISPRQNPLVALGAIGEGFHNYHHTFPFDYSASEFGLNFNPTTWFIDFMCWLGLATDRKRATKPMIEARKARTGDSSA
# Summary of the method: as §1
SMILES,IC50 [1],OLE1 % Max Inhibition [1],IC50 [2],SCD1 % Max Inhibition [2],IC50 [3],SCD5 % Max Inhibition [3]
O=C(CN1Cc2ccccc2C1=O)N1CCC(c2nc(-c3ccc4c(c3)COC4)no2)CC1 [Compound 223],> 45 µM,2.22%,40.6 µM,68.23%,41 µM,67.37%
Cc1nn(C)c2cc(-c3noc(C4CCN(C(=O)CNC(=O)c5ccncc5)CC4)n3)ccc12 [Compound 198],> 45 µM,2.96%,> 45 µM,71.25%,> 45 µM,36.45%
Cc1nn(C)c2cc(-c3noc(N4CCN(C(=O)c5ccccc5)CC4)n3)ccc12 [Compound 261],> 45 µM,94.41%,,73.42%,> 45 µM,82.31%
Cc1cc(N2CC(C(=O)N3CCC(c4nc(-c5ccc6c(C)nn(C)c6c5)no4)CC3)CC2=O)ccn1 (centres unmarked) [Compound 183],> 45 µM,101.71%,> 45 µM,101.67%,> 45 µM,84.88%
CC(C)n1cc(-c2noc(C3CCN(C(=O)C4CC(=O)N(c5cccc(Cl)c5)C4)CC3)n2)cn1 (centres unmarked) [Compound 338],> 45 µM,85.2%,> 45 µM,60.0%,> 45 µM,76.3%
CCN1C(=O)COc2ccc(-c3noc(C4(c5ccc(OC)cc5)CC4)n3)cc21 [Compound 491],> 45 µM,107.15%,,118.81%,> 45 µM,83.61%
CC(C)n1ncc2cc(-c3noc(C4CCN(C(=O)CNC(=O)c5ccccc5)CC4)n3)ccc21 [Compound 228],> 45 µM,21.30%,,51.80%,> 45 µM,2.72%
O=C(C1CC(=O)N(c2cccc(Cl)c2)C1)N1CCC(c2nc(N3CC4(COC4)C3)no2)CC1 (centres unmarked) [Compound 339],> 45 µM,85.7%,> 45 µM,56.1%,> 45 µM,75.4%
CCn1nc2cc(-c3noc(C4CCN(C(=O)OC(C)(C)C)CC4)n3)ccc2c1C [Compound 342],> 45 µM,80.9%,> 45 µM,75.9%,> 45 µM,43.5%
CCN1C(=O)COc2ccc(-c3nc(C4(c5ccccc5)CC4)no3)cc21 [Compound 159],> 45 µM,46.92%,38.9 µM,70.17%,13.9 µM,10.25%
Cn1c(=O)n(C)c2cc(-c3noc(C4CCN(C(=O)[C@H]5CC(=O)N(c6ccccn6)C5)CC4)n3)ccc21 [Compound 256],> 45 µM,4.16%,,76.04%,> 45 µM,72.11%
Cc1nn(C)c2ccc(-c3noc(C4CCN(C(=O)c5ccc(C(C)C)cc5)CC4)n3)cc12 [Compound 297],25.2 µM,42.0%,,5.7%,> 45 µM,9.2%
CCNCc1nc(-c2ccc3c(c2)N(CC)C(=O)CO3)no1 [Compound 493],> 45 µM,91.16%,,68.84%,30.2 µM,60.28%
Cc1nn(C)c2cc(-c3noc(C4CCN(C(=O)[C@H]5CC(=O)N(c6ccccc6)C5)CC4(F)F)n3)ccc12 (some centres unmarked) [Compound 241],> 45 µM,6.15%,> 45 µM,91.61%,> 45 µM,16.97%
CC(C)c1ccc(C(=O)N2CCC(c3nc(N4CC5(COC5)C4)no3)CC2)cc1 [Compound 337],> 45 µM,86.4%,,49.6%,> 45 µM,61.6%
Cc1nn(C)c2cc(-c3noc(C4CCN(C(=O)CNC(=O)c5cccc(C#N)c5)CC4)n3)ccc12 [Compound 268],> 45 µM,4.39% and 0.14%,≥ 45 µM,79.03% and 65%,> 45 µM,8.68% and 2.67%
COc1ccc(-c2noc(C3CCN(C(=O)C4CC(=O)N(c5cccc(C#N)c5)C4)CC3)n2)cc1OC(C)C (centres unmarked) [Compound 296],> 45 µM,99.1%,> 45 µM,86.6%,> 45 µM,22.6%
Cc1nn(C)c2cc(-c3noc(C4CCN(C(=O)CNC(=O)c5cccc(C#N)c5)CC4)n3)ccc12 [Compound 322],> 45 µM,9.0%,,73.6%,> 45 µM,29.8%
Cc1nn(C)c2cc(-c3noc(C4CCN(C(=O)[C@@H](CO)NC(=O)c5ccccc5)CC4)n3)ccc12 [Compound 186],> 45 µM,35.40%,> 45 µM,86.16%,30 µM,73.51%
Cc1nn(C)c2cc(-c3noc(C4CCN(C(=O)CNC(=O)c5cc(F)ccc5C(F)(F)F)CC4)n3)ccc12 [Compound 304],> 45 µM,14.7%,,74.9%,> 45 µM,51.6%
O=C(c1ccccc1)N1CCC(c2nc(N3CC4(CCCO4)C3)no2)CC1 [Compound 335],> 45 µM,81.5%,,54.0%,> 45 µM,61.2%
